# Reference: patent publication US20210255184A1, “Biosensor Device and Methods” (The New Zealand Institute for Plant and Food Research …, priority 2018, published 2021)
# Legend:
# [1] = EIS sensor, empty liposomes (specificity control); format: biochemical; details: empty liposomes without receptor
# Procedure: (§1) PBS solution was prepared by immersing one tablet of PBS in 200 ml of milli-Q water (according to manufacturers instructions) and filtered using 0.2-μm syringe filter. The pH of the prepared buffer solution was measured with a pH meter. OrX liposomes or OrX/Orco liposomes were diluted 100 fold in PBS buffer solution (pH=7.4) and the COOH-activated electrodes were incubated in that buffer solution at room temperature for one hour. Then, the electrodes were washed extensively with PBS buffer solution to wash out any unbound liposomes.
# (§2) PBS (pH=7.4) was used as an electrolyte to conduct electrochemical measurements. PBS buffer was degassed for about 30 minutes prior to electrochemical measurements. Odorant solutions of concentration ranging from 1 aM to 1 μM were prepared by sequential dilution in PBS solution containing 1% DMSO. OR immobilized electrodes were incubated in relevant odorant solution for ˜30 minutes each and washed gently with PBS before EIS measurements.
# (§3) EIS measurements were done in a 3 electrode cell containing Ag/AgCl (3 M NaCl, 0.209 V vs. SHE) reference electrode, coiled platinum wire as a counter electrode and the gold disk as a working electrode at a fixed voltage of −0.7 using PalmSens potentiostat. Degassed PBS was used as an electrolyte.
# EIS measurements were performed on gold electrodes functionalised with OrX liposomes (either Or10a or Or22a), OrX/Orco liposomes, or empty liposomes prior to and after target ligand or control ligand incubation with increasing concentrations (1 aM to 100 μM). Dose response curves were obtained by defining sensor response as −(ΔRp/R^op) versus log[C(Ligand)]. FIG. 4a presents the EIS response in terms of Nyquist plot for the Or10a liposome functionalized sensors when exposed to a solution containing one of the known target ligands of Or10a, methyl salicylate, at various concentrations. […] The dose response curve (FIG. 4b) was obtained by plotting the change in polarization resistance −(ΔRp/R^op) versus log[conc(Ligand)], as the sensor response. […]
# Or10a = molecular target: T1, Or10a (Drosophila melanogaster, UniProt Q9VYZ1); experiment: EIS sensor, Or10a liposomes on gold electrode; format: biochemical
# T1 construct: his-tag; made in house; host or cells: baculovirus-infected Sf9 cells
# T1 sequence (Q9VYZ1 1-406): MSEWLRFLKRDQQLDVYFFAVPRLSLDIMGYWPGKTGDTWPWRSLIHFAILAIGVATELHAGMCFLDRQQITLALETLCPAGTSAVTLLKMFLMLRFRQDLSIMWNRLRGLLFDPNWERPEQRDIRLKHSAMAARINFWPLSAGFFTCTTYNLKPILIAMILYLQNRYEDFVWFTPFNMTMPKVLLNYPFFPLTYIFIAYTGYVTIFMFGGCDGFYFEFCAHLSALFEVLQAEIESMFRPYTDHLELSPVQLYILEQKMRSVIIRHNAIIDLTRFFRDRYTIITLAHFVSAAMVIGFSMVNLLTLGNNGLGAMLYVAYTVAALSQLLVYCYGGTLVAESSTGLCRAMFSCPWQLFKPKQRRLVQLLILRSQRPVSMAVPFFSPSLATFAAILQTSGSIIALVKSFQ
# Procedure: Prior to their use, liposomes were defrosted on ice and then destabilized by incubating with 0.2% CHAPS for 15 min at room temperature. Then 200 μg of purified odorant receptor^28 was added to 1 mg of liposomes and rotated at 10 rpm for 1 h at room temperature. Excess detergent was removed by four additions of 25 mg of Bio-Beads SM-2 (Bio-Rad, USA) and incubation at 4° C. for 30 min, 2 h, overnight and a further 2 h respectively. The Bio-Beads were removed after each incubation period. The OrX or OrX/Orco integrated liposomes were pelleted by centrifugation at 100,000 g for 1 h, and were resuspended in 500 μL of rehydration buffer. Integration of OrXs and Orco into liposomes was assessed by density gradient ultracentrifugation (DGU) using Accudenz (Accurate Chemical & Scientific Corporation, USA). The integrated liposomes were brought to 40% Accudenz by the addition of an equal volume of 80% Accudenz solution, placed at the bottom of an ultra-centrifugation tube, and overlaid with 30% Accudenz solution, and DGU buffer (25 mM HEPES pH 7.5, 100 mM NaCl, 10% glycerol). The sample was then centrifuged at 100,000 g for 4 h at 4° C. Liposomes will float to the top of the gradient after Accudenz DGU due to their low density.
# 2 mM MHA was prepared by dissolving 1.36 μl of MHA in 5 ml ethanol (AR grade). The cleaned electrodes were immersed into MHA solution and incubated overnight. The next day, all the electrodes were washed with ethanol and deionised water thoroughly in order to remove the unreacted acid. A 2:1 mol:mol ratio of EDC:NHS (100 mM EDC, 50 mM NHS) was prepared in 2 ml PBS (pH=6.5) solution. Then, the electrodes were covered in 100 μl of this solution at 28° C. for an hour to activate the carboxylic (COOH) groups of the MHA.
# as §1, §2, §3
# EIS measurements were performed on gold electrodes functionalised with OrX liposomes (either Or10a or Or22a), OrX/Orco liposomes, or empty liposomes prior to and after target ligand or control ligand incubation with increasing concentrations (1 aM to 100 μM). Dose response curves were obtained by defining sensor response as −(ΔRp/R^op) versus log[C(Ligand)]. FIG. 4a presents the EIS response in terms of Nyquist plot for the Or10a liposome functionalized sensors when exposed to a solution containing one of the known target ligands of Or10a, methyl salicylate, at various concentrations. […] The dose response curve (FIG. 4b) was obtained by plotting the change in polarization resistance −(ΔRp/R^op) versus log[conc(Ligand)], as the sensor response. Here, Rp is the polarization resistance after Or10a liposome-target interaction and R^op is the polarization resistance before Or10a liposome-target interaction.
Compound,sensor response to ligand [1],sensor response to control ligand (Or10a; EIS dose response),"limit of detection (LOD) (Or10a; EIS dose response, ligand 1 aM to 100 μM) [pM]","EC50 (Or10a; Table 1, approximate) [nM]","Sensitivity limit (Or10a; Table 1, * estimated visually from dose response graph)",Detection Range (Or10a; Table 3),"EC50 (Or10a; Table 3, fitted dose response) [nM]"
CCCCCC(=O)OC [methyl hexanoate],negligible response,negligible response,–,–,–,–,–
COC(=O)c1ccccc1O [methyl salicylate],negligible response,–,0.1,~0.1,~10^−10 M*,10^−13 to 10^−7 M,0.0022
